Source: PMC6151695, “Novel Selective Estrogen Receptor Ligand Conjugates Incorporating Endoxifen-Combretastatin and Cyclofenil-Combretastatin Hybrid Scaffolds: Synthesis and Biochemical Evaluation” (Molecules : A Journal of Synthetic Chemistry and Natural …, 2017)
Marks after values point to notes of the source that are not given here.

Assays:
HCT-116 = assay: NCI60 in vitro screen, Colon Cancer; assay type: cell-based, human
SK-MEL-2 = assay: NCI60 in vitro screen, Melanoma; assay type: cell-based, human
NCI-H23 = assay: NCI60 in vitro screen, Non-Small Cell Lung Cancer; assay type: cell-based, human
SN12C = assay: NCI60 in vitro screen, Renal cancer; assay type: cell-based, human
LOX IMV1 = assay: NCI60 in vitro screen, Melanoma; assay type: cell-based, human
M14 = assay: NCI60 in vitro screen, Melanoma; assay type: cell-based, human
T-47D = assay: NCI60 in vitro screen, Breast cancer; assay type: cell-based, human
SNB-75 = assay: NCI60 in vitro screen, CNS Cancer; assay type: cell-based, human
[1] = test system: MCF-7 human breast cancer cell line; assay: Alamar Blue assay for antiproliferative effects; assay type: cell-based; settings: Homo sapiens, MCF7, 72 h, MCF-7, 72 h, Alamar Blue; read-out: IC50 (μM), antiproliferative effects
A549/ATCC = assay: NCI60 in vitro screen, Non-Small Cell Lung Cancer; assay type: cell-based, human
MDA-MB-435 = assay: NCI60 in vitro screen, Melanoma; assay type: cell-based, human
SK-MEL-5 = assay: NCI60 in vitro screen, Melanoma; assay type: cell-based, human
HOP-62 = assay: NCI60 in vitro screen, Non-Small Cell Lung Cancer; assay type: cell-based, human
UO-31 = assay: NCI60 in vitro screen, Renal cancer; assay type: cell-based, human
SR = assay: NCI60 in vitro screen, Leukemia; assay type: cell-based, human
MCF-7 = settings: MCF-7, 10 μM
786-0 = assay: NCI60 in vitro screen, Renal cancer; assay type: cell-based, human
BT-549 = assay: NCI60 in vitro screen, Breast cancer; assay type: cell-based, human
SF539 = assay: NCI60 in vitro screen, CNS Cancer; assay type: cell-based, human
NCI-H332M = assay: NCI60 in vitro screen, Non-Small Cell Lung Cancer; assay type: cell-based, human
HOP-92 = assay: NCI60 in vitro screen, Non-Small Cell Lung Cancer; assay type: cell-based, human
K-562 = assay: NCI60 in vitro screen, Leukemia; assay type: cell-based, human
MCF-7 cells = settings: human
HCT-15 = assay: NCI60 in vitro screen, Colon Cancer; assay type: cell-based, human
NCI-H226 = assay: NCI60 in vitro screen, Non-Small Cell Lung Cancer; assay type: cell-based, human
UACC-257 = assay: NCI60 in vitro screen, Melanoma; assay type: cell-based, human
CAKI-1 = assay: NCI60 in vitro screen, Renal cancer; assay type: cell-based, human
COLO 205 = assay: NCI60 in vitro screen, Colon Cancer; assay type: cell-based, human
CCRF-CEM = assay: NCI60 in vitro screen, Leukemia; assay type: cell-based, human
SNB-19 = assay: NCI60 in vitro screen, CNS Cancer; assay type: cell-based, human
IGROV1 = assay: NCI60 in vitro screen, Ovarian cancer; assay type: cell-based, human
HS 578T = assay: NCI60 in vitro screen, Breast cancer; assay type: cell-based, human
TK-10 = assay: NCI60 in vitro screen, Renal cancer; assay type: cell-based, human
MOLT-4 = assay: NCI60 in vitro screen, Leukemia; assay type: cell-based, human
NCI/ADR-RES = assay: NCI60 in vitro screen, Ovarian cancer; assay type: cell-based, human
DU-145 = assay: NCI60 in vitro screen, Prostate cancer; assay type: cell-based, human
UACC-62 = assay: NCI60 in vitro screen, Melanoma; assay type: cell-based, human
MDA-MB-468 = assay: NCI60 in vitro screen, Breast cancer; assay type: cell-based, human

SMILES: CC/C(=C(\c1ccccc1)c1ccc(OCCN(C)C(=O)CCC(=O)Oc2cc(/C=C\c3cc(OC)c(OC)c(OC)c3)ccc2OC)cc1)c1ccccc1 (mixture of isomers) [Compound 16a, N-{2-[4-((Z)-1,2-Diphenylbut-1-enyl)phenoxy]ethyl}-N-methylsuccinamic acid 2-methoxy-5-[(Z)-2-(3,4,5-trimethoxyphenyl)vinyl]phenyl ester]
- Growth % (10^−5 M) (HCT-116; HCT-116, 10 μM): 1.61%
- GI50 (HCT-116; Homo sapiens, HCT-116): 15.6 nM
- inhibition at 10 µM (HCT-116; Homo sapiens, HCT-116, one-dose, 10 μM, read-out: growth inhibition): 98%
- GI50 (SK-MEL-2; Homo sapiens, SK-MEL-2): > 10000 nM
- Growth % (10^−5 M) (SK-MEL-2; SK-MEL-2, 10 μM): 37.97%
- GI50 (NCI-H23; Homo sapiens, NCI-H23): 45.9 nM
- Growth % (10^−5 M) (NCI-H23; NCI-H23, 10 μM): 12.25%
- Growth % (10^−5 M) (SN12C; 10 μM): 31.84%
- GI50 (SN12C; Homo sapiens): 57.6 nM
- GI50 (LOX IMV1; Homo sapiens, LOX IMV1): 35.8 nM
- Growth % (10^−5 M) (LOX IMV1; LOX IMV1, 10 μM): 28.97%
- GI50 (M14; Homo sapiens, M14): 12.9 nM
- inhibition at 10 µM (M14; Homo sapiens, M14, one-dose, 10 μM, read-out: growth inhibition): 99%
- Growth % (10^−5 M) (M14; M14, 10 μM): 1.39%
- Growth % (10^−5 M) (T-47D; 10 μM): 59.73%
- GI50 (T-47D; Homo sapiens, T47D): > 10000 nM
- GI50 (SNB-75; Homo sapiens, SNB-75): 16.6 nM
- Growth % (10^−5 M) (SNB-75; SNB-75, 10 μM): 39.46%
- IC50 [1]: 0.09 µM
- Growth % (10^−5 M) (A549/ATCC; 10 μM): 18.56%
- GI50 (A549/ATCC; Homo sapiens): 59 nM
- GI50 (MDA-MB-435; Homo sapiens, MDA-MB-435): < 10 nM
- Growth % (10^−5 M) (MDA-MB-435; MDA-MB-435, 10 μM): −16.61 ^e %
- GI50 (SK-MEL-5; Homo sapiens, SK-MEL-5): 20.1 nM
- Growth % (10^−5 M) (SK-MEL-5; SK-MEL-5, 10 μM): −34.34 ^e %
- Growth % (10^−5 M) (HOP-62; HOP-62, 10 μM): 35.29%
- GI50 (HOP-62; Homo sapiens, HOP-62): 49.2 nM
- GI50 (UO-31; Homo sapiens, UO-31): 88.4 nM
- Growth % (10^−5 M) (UO-31; UO-31, 10 μM): 31.52%
- Growth % (10^−5 M) (SR; 10 μM): 29.68%
- GI50 (SR; Homo sapiens): 18.9 nM
- Growth % (10^−5 M) (MCF-7): 10.06%
- Growth % (10^−5 M) (786-0; 786-0, 10 μM): 11.54%
- GI50 (786-0; Homo sapiens, 786-0): 185 nM
- Growth % (10^−5 M) (BT-549; BT-549, 10 μM): 7.07%
- GI50 (BT-549; Homo sapiens, BT-549): 43.8 nM
- inhibition at 10 µM (BT-549; Homo sapiens, BT-549, one-dose, 10 μM, read-out: growth inhibition): 94%
- GI50 (SF539; Homo sapiens, SF-539, SF539): 21.3 nM
- Growth % (10^−5 M) (SF539; SF539, 10 μM): −7.31 ^e %
- Growth % (10^−5 M) (NCI-H332M; 10 μM): 57.18%
- GI50 (NCI-H332M; Homo sapiens): 67.2 nM
- Growth % (10^−5 M) (HOP-92; HOP-92, 10 μM): 58.55%
- GI50 (HOP-92; Homo sapiens, HOP-92): < 10 nM
- GI50 (K-562; Homo sapiens, K562, K-562): < 10 nM
- Growth % (10^−5 M) (K-562; K-562, 10 μM): 41.7%
- cytotoxicity (LDH assay) (MCF-7 cells): 13.2%
- Growth % (10^−5 M) (HCT-15; HCT-15, 10 μM): 0.71%
- GI50 (HCT-15; Homo sapiens, HCT-15): 24.5 nM
- inhibition at 10 µM (HCT-15; Homo sapiens, HCT-15, one-dose, 10 μM, read-out: growth inhibition): 99%
- GI50 (NCI-H226; Homo sapiens, NCI-H226): 47.1 nM
- Growth % (10^−5 M) (NCI-H226; NCI-H226, 10 μM): 11.59%
- GI50 (UACC-257; Homo sapiens, UACC-257): > 10000 nM
- Growth % (10^−5 M) (UACC-257; UACC-257, 10 μM): 48.73%
- Growth % (10^−5 M) (CAKI-1; CAKI-1, 10 μM): 23.4%
- GI50 (CAKI-1; Homo sapiens, CAKI-1): 30.7 nM
- Growth % (10^−5 M) (COLO 205; COLO 205, 10 μM): −55 ^e %
- GI50 (COLO 205; Homo sapiens, COLO 205): 378 nM
- Growth % (10^−5 M) (CCRF-CEM; 10 μM): 20.38%
- GI50 (CCRF-CEM; Homo sapiens): 39.4 nM
- GI50 (SNB-19; Homo sapiens, SNB-19): 36.5 nM
- Growth % (10^−5 M) (SNB-19; SNB-19, 10 μM): 28.03%
- GI50 (IGROV1; Homo sapiens, IGROV-1, IGROV1): 47.3 nM
- Growth % (10^−5 M) (IGROV1; IGROV1, 10 μM): −26.34 ^e %
- Growth % (10^−5 M) (HS 578T; 10 μM): 17.57%
- GI50 (HS 578T; Homo sapiens): 25.5 nM
- GI50 (TK-10; Homo sapiens, TK-10): 589 nM
- Growth % (10^−5 M) (TK-10; TK-10, 10 μM): 33.77%
- GI50 (MOLT-4; Homo sapiens, MOLT-4): 39.8 nM
- Growth % (10^−5 M) (MOLT-4; MOLT-4, 10 μM): 36.2%
- Growth % (10^−5 M) (NCI/ADR-RES; 10 μM): −41.32 ^e %
- GI50 (NCI/ADR-RES; Homo sapiens): 11.1 nM
- Growth % (10^−5 M) (DU-145; DU-145, 10 μM): −36.33 ^e %
- GI50 (DU-145; Homo sapiens, DU-145): 12.5 nM
- GI50 (UACC-62; Homo sapiens, UACC-62): 18.1 nM
- Growth % (10^−5 M) (UACC-62; UACC-62, 10 μM): 25.13%
- GI50 (MDA-MB-468; Homo sapiens, MDA-MB-468): 34.3 nM
- inhibition at 10 µM (MDA-MB-468; Homo sapiens, MDA-MB-468, one-dose, 10 μM, read-out: growth inhibition): 99%
- Growth % (10^−5 M) (MDA-MB-468; MDA-MB-468, 10 μM): 0.68%
